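Five compound concentrations were applied to cells in 96-well plates for 48 hours; endpoints were derived by simple linear interpolation of the resulting dose-response curve. GI50: concentration for 50% inhibition of growth.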 The source made the active and inactive calls. Rule as the data show it: active = GI50 up to about 1.1 µM and inactive = higher.
Tests used:
Test in all cases: NCI-60 cell line screen, 48 h
[1] = system: SF-295
[2] = system: U-251
[3] = system: TK-10
[4] = system: SK-MEL-2
[5] = system: UACC-62
[6] = system: HCT-116
[7] = system: UO-31
[8] = system: OVCAR-8
[9] = system: CCRF-CEM
[10] = system: HOP-62
[11] = system: DMS-114
[12] = system: MOLT-4
[13] = system: HT-29
[14] = system: SK-OV-3
[15] = system: HOP-92
[16] = system: M14
[17] = system: NCI-H460
[18] = system: SK-MEL-28
[19] = system: HCT-15
[20] = system: Malme-3M
[21] = system: SW-620
[22] = system: K562
[23] = system: SNB-75
[24] = system: OVCAR-3
[25] = system: A549
[26] = system: SNB-19
[27] = system: M19-MEL
[28] = system: NCI-H226
[29] = system: ACHN
[30] = system: UACC-257
[31] = system: DLD-1
[32] = system: 786-0
[33] = system: IGROV-1
[34] = system: OVCAR-5
[35] = system: COLO 205
[36] = system: KM12
[37] = system: A498
[38] = system: SF-268
[39] = system: SK-MEL-5
[40] = system: HCC 2998
[41] = system: EKVX
[42] = system: RXF 393
[43] = system: SNB-78
[44] = system: NCI-H23
[45] = system: SF-539
[46] = system: KM-20L2
[47] = system: LXFL 529
[48] = system: RPMI-8226
[49] = system: LOX IMVI
[50] = system: HL-60

O=C(O)/C(=C/c1c(O)ccc2ccccc12)c1csc(-c2nc(/C(=C\c3c(O)ccc4ccccc34)C(=O)O)cs2)n1 was tested, and the GI50 [1] was 11.2 µM (inactive), the GI50 [2] was 14 µM (inactive) and the GI50 [3] was 29 µM (inactive). The GI50 [4] was 2.33 µM (inactive), the GI50 [5] was 10.4 µM (inactive) and the GI50 [6] was 10.6 µM (inactive). The GI50 [7] was 1.53 µM (inactive), the GI50 [8] was 22.2 µM (inactive) and the GI50 [9] was 10.7 µM (inactive). For the same compound, the GI50 [10] was 10 µM (inactive), the GI50 [11] was 10 µM (inactive) and the GI50 [12] was 13.4 µM (inactive). The GI50 [13] was 22.2 µM (inactive), the GI50 [14] was 12.3 µM (inactive) and the GI50 [15] was 1.86 µM (inactive). For the same compound, the GI50 [16] was 11.7 µM (inactive), the GI50 [17] was 19 µM (inactive) and the GI50 [18] was 14.4 µM (inactive). For the same compound, the GI50 [19] was 14.4 µM, the GI50 [20] was 1.61 µM (inactive) and the GI50 [21] was 24 µM (inactive). For the same compound, the GI50 [22] was 15.8 µM (inactive), the GI50 [23] was 11 µM (inactive) and the GI50 [24] was 13.3 µM (inactive). The GI50 [25] was 23.3 µM (inactive), the GI50 [26] was 13.5 µM (inactive) and the GI50 [27] was 6.17 µM (inactive). The GI50 [28] was 2.49 µM (inactive), the GI50 [29] was 4.83 µM (inactive) and the GI50 [30] was 14.9 µM (inactive). The GI50 [31] was 12 µM (inactive), the GI50 [32] was 13.5 µM (inactive) and the GI50 [33] was 11.1 µM (inactive). The GI50 [34] was 17.5 µM (inactive), the GI50 [35] was 16.4 µM (inactive) and the GI50 [36] was 19.8 µM (inactive). For the same compound, the GI50 [37] was 20.7 µM (inactive), the GI50 [38] was 10 µM (inactive) and the GI50 [39] was 19.4 µM (inactive). The GI50 [40] was 17.4 µM (inactive), the GI50 [41] was 41.2 µM (inactive) and the GI50 [42] was 3.21 µM (inactive). For the same compound, the GI50 [43] was 13.6 µM (inactive), the GI50 [44] was 9.55 µM (inactive) and the GI50 [45] was 6.17 µM (inactive). The GI50 [46] was 19.4 µM (inactive), the GI50 [47] was 13.6 µM (inactive) and the GI50 [48] was 9.38 µM (inactive). The GI50 [49] was 19.8 µM (inactive) and the GI50 [50] was 8.45 µM (inactive).
